Like-named read-outs stand apart in the source and are kept apart here. Bridge positions count the residues as written; N and C are the ends. Square brackets hold non-standard residues; d marks the D form. Ends that are not written are not given here. Peptide text beside a SMILES is read from it. I, II: the chains in the order shown. * marks the point of attachment. X1 = CCCCCCCCCCCC(=O)N[C@@H](CCCN)C(=O)N[C@@H](CCCN)C(=O)N[C@@H](CS*)C(N)=O; Lauroyl = CCCCCCCCCCCC(=O)*; Orn = NCCC[C@H](N)C(=O)O
What was measured:
[1] = system: S. aureus ATCC 6538; type: cell-based, Staphylococcus aureus
Protocol: (§1) The reference strains were supplied by the Polish Collection of Microorganisms (Polish Academy of Sciences, Institute of Immunology and Experimental Therapy, Wroclaw, Poland). Minimal inhibitory concentration (MIC) was determined by the microbroth dilution method outlined by the National Committee for Clinical Laboratory Standards ([2003]). The following microbial strains were tested: Gram-positive: Rhodococcus equi ATCC 6939, Staphylococcus epidermidis, S. aureus ATCC 6538, Streptococcus pyogenes and Enterococcus faecalis; Gram-negative: E. coli ATCC 8739, Pseudomonas aeruginosa and fungi: C. albicans ATCC10231. Bacteria were suspended in Mueller–Hinton II broth (Sigma-Aldrich) at initial inocula of 5 × 10^5 cfu (colony-forming units)/mL, while the Sabouraud 5 % dextrose broth of a pH of 7.4 (Sigma-Aldrich) was used for fungi (at initial inoculum of 5 × 10^3 cfu/mL). Microbial cells in polystyrene 96-well plates were exposed to the peptides at adequate concentrations (range 1–512 μg/mL) for 18 h at 37 °C (bacterial strains) or for 48 h at 25 °C (fungi). MIC was taken as the lowest drug concentration at which observable growth was inhibited. Experiments were performed in triplicate on three different days.

[2] = system: C. albicans ATCC10231; type: cell-based, Candida albicans
Protocol: as §1

[3] = system: E. coli ATCC 8739; type: cell-based, Escherichia coli
Protocol: as §1

[4] = system: Streptococcus pyogenes; type: cell-based
Protocol: as §1

[5] = system: Rhodococcus equi ATCC 6939; type: cell-based
Protocol: as §1

[6] = system: Staphylococcus epidermidis; type: cell-based
Protocol: as §1

[7] = system: Pseudomonas aeruginosa; type: cell-based
Protocol: as §1

[8] = system: Enterococcus faecalis; type: cell-based
Protocol: as §1

[9] = system: human red blood cells; experiment: Haemolysis assay; type: cell-based; conditions: human red blood cells 4 % [v/v] in PBS, 2 h at 37 °C, range 1-512 µg/mL, assessed visually; 1 % Triton positive control
Protocol: The haemolytic activity of the peptides was tested against human red blood cells, essentially as described previously (Kamysz et al. [2007]). Fresh human blood was collected into tubes containing EDTA as anticoagulant. Red blood cells were separated by centrifugation at 500×g for 12 min at room temperature and the plasma was aspirated. Erythrocytes were washed three times with PBS, separated by centrifugation (500×g, 12 min) and resuspended in PBS. Peptides I–V were serially diluted in PBS (range 1–512 μg/mL) and 50 μL was added to 50 μL of the erythrocyte suspension. The final concentration of red blood cells was 4 % [v/v]. The results were assessed visually after incubation for 2 h at 37 °C. As a positive control, 1 % Triton was used, whereas PBS served as a negative control.

Compound | Antimicrobial activity (MIC) ([1]; ATCC 6538, 18 h) [µg/mL] | Antimicrobial activity (MIC) ([2]; ATCC10231, 48 h, pH 7.4) [µg/mL] | Antimicrobial activity (MIC) ([3]; ATCC 8739, 18 h) [µg/mL] | Antimicrobial activity (MIC) ([4]; 18 h) [µg/mL] | Antimicrobial activity (MIC) ([5]; ATCC 6939, 18 h) [µg/mL] | Antimicrobial activity (MIC) ([6]; 18 h) [µg/mL] | Antimicrobial activity (MIC) ([7]; 18 h) [µg/mL] | Antimicrobial activity (MIC) ([8]; 18 h) [µg/mL] | Haemolytic activity [9] [µg/mL] | Antimicrobial activity (MIC) ([1]; Staphylococcus aureus, Mueller-Hinton II broth, 5 × 10^5 cfu/mL, 18 h at 37 °C, range 1-512 µg/mL, triplicate on three different days) [µg/mL] | Antimicrobial activity (MIC) ([2]; Candida albicans, Sabouraud 5 % dextrose broth pH 7.4, 5 × 10^3 cfu/mL, 48 h at 25 °C, range 1-512 µg/mL, triplicate on three different days) [µg/mL] | Antimicrobial activity (MIC) ([3]; Escherichia coli, Mueller-Hinton II broth, 5 × 10^5 cfu/mL, 18 h at 37 °C, range 1-512 µg/mL, triplicate on three different days) [µg/mL] | Antimicrobial activity (MIC) ([4]; Streptococcus pyogenes, Mueller-Hinton II broth, 5 × 10^5 cfu/mL, 18 h at 37 °C, range 1-512 µg/mL, triplicate on three different days) [µg/mL] | Antimicrobial activity (MIC) ([5]; Rhodococcus equi, Mueller-Hinton II broth, 5 × 10^5 cfu/mL, 18 h at 37 °C, range 1-512 µg/mL, triplicate on three different days) [µg/mL] | Antimicrobial activity (MIC) ([6]; Staphylococcus epidermidis, Mueller-Hinton II broth, 5 × 10^5 cfu/mL, 18 h at 37 °C, range 1-512 µg/mL, triplicate on three different days) [µg/mL] | Antimicrobial activity (MIC) ([7]; Pseudomonas aeruginosa, Mueller-Hinton II broth, 5 × 10^5 cfu/mL, 18 h at 37 °C, range 1-512 µg/mL, triplicate on three different days) [µg/mL] | Antimicrobial activity (MIC) ([8]; Enterococcus faecalis, Mueller-Hinton II broth, 5 × 10^5 cfu/mL, 18 h at 37 °C, range 1-512 µg/mL, triplicate on three different days) [µg/mL]
CCCCCCCCCCCC(=O)N[C@@H](CCCN)C(=O)N[C@@H](CCCN)C(=O)N[C@@H](CS)C(N)=O [Peptide III, Laur-Orn-Orn-Cys–NH2] (Lauroyl-[Orn]-[Orn]-Cys-NH2) | 2 | 128 | 8 | 4 | 2 | 2 | 8 | 2 |  |  |  |  |  |  |  |  | 
CCCCCCCCCCCC(=O)N[C@@H](CCCN)C(=O)N[C@@H](CCCN)C(=O)N[C@@H](CSSC[C@H](NC(=O)[C@H](CCCN)NC(=O)[C@H](CCCN)NC(=O)CCCCCCCCCCC)C(N)=O)C(N)=O [Peptide IV] (I: Lauroyl-[Orn]-[Orn]-Cys-NH2 / II: Lauroyl-[Orn]-[Orn]-Cys-NH2; disulfide I:3-II:3) | 2 | >512 | 8 | 2 | 1 | 2 | 4 | 4 |  |  |  |  |  |  |  |  | 
CCCCCCCCCCCC(=O)N[C@@H](CCCN)C(=O)N[C@@H](CCCN)C(=O)N[C@@H](CSSC[C@H](NC(=O)[C@H](Cc1c[nH]c2ccccc12)NC(=O)[C@H](CCC(N)=O)NC(=O)[C@@H](NC(=O)[C@H](CO)NC(=O)[C@H](CCCNC(=N)N)NC(=O)[C@H](CCCNC(=N)N)NC(=O)[C@H](CCCNC(=N)N)NC(=O)[C@H](CCCNC(=N)N)NC(=O)CN)C(C)C)C(=O)N[C@@H](C)C(N)=O)C(N)=O [Peptide V] (H-GRRRRSVQWC(X1)A-NH2; N-terminus assumed) | 4 | >512 | 128 | 2 | 2 | 1 | 8 | 32 |  |  |  |  |  |  |  |  | 
GRRRRSVQWCA-NH2 [Peptide I, hLF(1–11)–NH2] |  |  |  |  |  |  |  |  | >512 | 64 | 128 | 512 | 2 | 16 | 2 | 32 | 256

Reference: publication PMC4305368, “Influence of Dimerization of Lipopeptide Laur-Orn-Orn-Cys–NH2 and an N-terminal Peptide of Human Lactoferricin on Biological Activity” (International Journal of Peptide Research and Therapeutics, 2014)
